Laboratory results: US10149472B2, “Chitin oligomers for use in promoting non-leguminous plant growth and development” (Wisconsin Alumni Research Foundation, priority 2015, dated 2018)

Key:
M. truncatula = test: Lateral root emergence in M. truncatula; format: in vivo, Medicago truncatula; settings: 10^−7 M; fold induction relative to the control; FIG. 7
Method: M. truncatula roots were treated with 10^−7 M CO4 or 10^−7 M NS-LCO and the effect on lateral root emergence was measured. The numbers in parentheses indicate the number of plants analyzed. The significance of the difference to the […] control plants, as measured using a t-test, is indicated. The treatments are measured as fold induction relative to the control. Error bars represent the standard error.
Accordingly, the disclosed method is limited in scope to treating non-leguminous plants, or seeds, seedlings or plant parts thereof.

[1] = tested on: rice knock-out mutants of pollux and dmi3; test: Root architecture modification in rice Ospollux and Osdmi3 mutants; format: in vivo, Oryza sativa cv Nipponbare; settings: 10^−8M; Ospollux and Osdmi3 mutants vs wild-type; FIG. 4
Method: (§1) Oryza sativa cv Nipponbare wild-type and Tos17 insertion lines in POLLUX (line NC6453) and DMI3 were used for root architecture experiments (12, 13). Seeds were prepared by sterilizing with 2% bleach for 20 minutes, followed by 3, 5-minute rinses with sterile water. The sterile seeds were then imbibed overnight. Seeds were then plated on damp germination paper in Petri plates under sterile conditions and germinated in the dark at 25 degrees for 7 days. Germinated rice plants were then plated on Fahraeus medium on germination paper and grown at 22 degrees under constant light. After 5 days the plants were treated with 10^−8M LCOs and COs for 24 hours by submersion and re-plated onto Fåhræus Medium 1.5% agar plates (0.132 g/L CaCl2, 0.12 g/L MgSO4.7H2O, 0.1 g/L KH2PO4, 0.075 g/L Na2HPO4.2H2O, 5 mg/L Fe-citrate, and 0.07 mg/L each of MnCl2.4H2O, CuSO4.5H2O, ZnCl2, H3BO3, and Na2MoO4.2H2O, adjusted to pH 6.5 before autoclaving). As all signals were suspended in 50% ethanol, the appropriate concentration of ethanol in sterile DI water served as a control. Root system architecture was assessed after 2 weeks.
Total lateral roots of rice were enumerated manually two weeks after application of 10^−8M COs and LCOs. As COs and LCOs were suspended in 50% ethanol, the control is sterile deionized water containing the appropriate amount of ethanol. […] Root system length was measured starting from the root-shoot junction to the tip of the longest root. The number of crown roots was assessed manually as those roots emerging from the root-shoot junction. […] Data were assessed for normality using the Shapiro-Wilk test (α=0.01), and statistical significance was determined using a paired t-test assuming unequal variances, or a Mann-Whitney-Wilcoxon Test if normality was not observed (α=0.05). […]
To assess the role of the common symbiotic pathway in regulating root architecture modifications in response to purified LCOs and COs, we quantified root responses to mycorrhizal signals in rice knock-out mutants of pollux (upstream of calcium spiking) and dmi3 (downstream of calcium spiking).

[2] = tested on: rice trichoblasts (root hair cells); test: Calcium spiking (YC3.6 imaging) in rice trichoblasts (root hair cells); format: cell-based, Oryza sativa cv Nipponbare; settings: 10^−5 M, FIG. 5, FIG. 6
Method: Mycorrhizal induced calcium responses were measured as described previously (14). Transgenic Oryza sativa Nipponbare lines carrying Yellow Cameleon 3.6 (YC3.6) FRET-based calcium sensor was used to detect calcium spiking. YC3.6 was imaged on a Nikon Eclipse Ti inverted microscope (Nikon, Japan) equipped with an OptoLED Illuminator (model OptoLED, Cairn Research Ltd, UK). YC3.6 was excited at a wavelength of 455 nm using a royal blue LED and was captured with a charge-coupled device (CCD) camera (model RETIGA-SRV, Qimaging, Canada). Emitted fluorescence was separated by an image splitter with a dichroic mirror (model Optosplit II, Cairn Research Ltd, UK) and then passed through a fluorescence filter set. Images were collected every 5 seconds with 1-second exposure and analyzed using MetaFluor (Molecular Devices, Sunnyvale, Calif., USA).
Both LCOs and COs are Required to Induce Calcium Spiking in Trichoblasts. Rhizobia colonize legumes by root hair cells (trichoblasts), whereas AM fungi colonize roots via non-root hair epidermal cells (atrichoblasts). Thus, these different root epidermal cell types may respond differently to COs and LCOs. To test this, we directly compared trichoblast and atrichoblast responses using high concentrations of CO4 in rice. Calcium oscillations observed in rice following treatments of CO4 were restricted to atrichoblasts, with no responses in trichoblasts even with CO4 treatments of 10^−5 M (FIG. 5). This preferential nature of rice atrichoblasts to respond to the AM signals is consistent with a preference for AM fungi to colonize the root via atrichoblasts (26). It is possible that either AM fungi produce signalling molecules other than S-LCO, NS-LCO and CO4 that induce calcium oscillations in rice trichoblasts, or that the mix of signalling molecules is important. To test this, we assessed induction of calcium oscillations by an equimolar mix of 10^−5 M S-LCO, NS-LCO, and CO4.

rice = test: Root architecture modification in wild-type rice after submersion treatment; format: in vivo, Oryza sativa cv Nipponbare; settings: 10^−8M, 24 hours submersion, assessed after two weeks, FIG. 3
Method: as §1
Total lateral roots of rice were enumerated manually two weeks after application of 10^−8M COs and LCOs. As COs and LCOs were suspended in 50% ethanol, the control is sterile deionized water containing the appropriate amount of ethanol. Lateral roots were defined as large and fine lateral roots emerging from crown roots, as well as fine lateral roots emerging from large lateral roots. Root system length was measured starting from the root-shoot junction to the tip of the longest root. The number of crown roots was assessed manually as those roots emerging from the root-shoot junction. Root type characterizations were based upon the descriptions in Gutjahr et al. (19). Data were assessed for normality using the Shapiro-Wilk test (α=0.01), and statistical significance was determined using a paired t-test assuming unequal variances, or a Mann-Whitney-Wilcoxon Test if normality was not observed (α=0.05). All statistical analysis was conducted using the R software package (20).

| Substance | lateral root emergence (M. truncatula) | dependence of overall root length increase on POLLUX / DMI3 [1] | calcium spiking in trichoblasts [2] | crown root growth (rice) | lateral root growth (rice) | root system length (rice) |
| --- | --- | --- | --- | --- | --- | --- |
| LCO-IV (C16:0 or C18:1) [NS-LCO] | promotion | dependent upon both POLLUX and DMI3 | did not induce calcium spiking | promoted | promoted | enhanced |
| LCO-IV (C16:0, S or C18:1, S) [S-LCO] |  |  | did not induce calcium spiking | promoted | promoted |  |
